Experiments:
Format in all cases: physicochemical
[1] = Dynamic Vapor Sorption (DVS); details: for water uptake, weight gain between 5-95% relative humidity (RH) / hygroscopicity: DVS; for DVS mass change 5-95% RH (wt. %) / water uptake, weight gain between 5-95% relative humidity (RH): 5-95% RH; for hygroscopicity: all adsorbed water lost during the drying cycle; for XRPD pre- and post-DVS: form stability after DVS cycle
Method: DVS was performed using TA Instruments Q5000SA. The sample (5-15 mg) was loaded into a metallic quartz sample pan, suspended from a microbalance, and exposed to a humidified stream of nitrogen gas. Weight changes were relative to a matching empty reference pan opposite the sample, suspended from the microbalance. The sample was held for a minimum of 10 min at each level and only progressed to the next humidity level if there was <0.002% change in weight between measurements (interval: 5 s) or 45 min had elapsed (for 5-65% RH) or 2 h had elapsed (for 80 and 95% RH). Mass change by DVS is related to hygroscopicity.

[2] = Solid form stability studies, 75% RH at 40° C. for one week (XRPD and HPLC); details: for XRPD (tested material): 75% ± 5% RH at 40° C. ± 2° C. for 1 week; for Purity % a/a (tested material) / Purity % a/a (input material): HPLC; for Purity % a/a (tested material): after 75% ± 5% RH at 40° C. ± 2° C. for 1 week; for Purity % a/a (input material): before stability test
Method: Solid form stability studies were performed on Form I-V freebase forms by weighing approximately 10-15 mg of the crystalline material into 4 mL vials and covering with a lab grade task wipe (Kimwipe). These vials were placed inside a stability chamber set at 75%±5% relative humidity (RH) at 40° C.±2° C., where they were left for one week (7 full days). The retrieved material was then analyzed by XRPD and HPLC. In each case, the initial material and tested material were identical by XRPD, with the exception of Form I freebase, where an extra peak at 5.8 °2θ in the initial material was absent after the stability test. HPLC purities of the tested material were essentially unchanged from those of the initial material.

[3] = First set of competitive slurry experiments (Form I-IV freebases); details: for relative stability of Forms I-IV freebases: five solvent systems; for evidence of form by XRPD after 2 days: slurries seeded with Forms I-IV, RT or 50° C., all experiments
Method: Competitive slurry experiments were carried out with Form I-IV freebases at two temperatures, room temperature (RT) and 50° C., in five solvents/solvent systems. First, saturated solutions of Form I freebase (Example 2) were prepared at each temperature in each solvent system. To make the saturated solutions, Form I freebase was added to 2 mL of solvent already stirring at the desired temperature, either room temperature (RT) or at 50° C. Once a thin slurry was observed, the samples were left to equilibrate overnight. After stirring overnight, the stir bars were removed to allow the solids to settle, and the supernatant was pipetted into clean 4 mL vials containing a 10 mm stir bar.
The supernatant was then left to stir for an additional 15 min prior to adding seeds (approximately 5 mg per form, pre-weighed) of the following patterns: Form I freebase (Example 2), Form II freebase (Example 3), Form III freebase (Example 4) and Form IV freebase (Example 5). Samples of the slurries were plated for XRPD analysis immediately after seeding. The slurries were then sampled again after 2 days and 7 days at the respective temperatures.

[4] = Dry and solvent-drop milling of Form I freebase; details: 16 s at 3500 rpm
Method: Dry and solvent-drop milling on pure-phase Form I freebase was performed using a ball mill with ¼ inch stainless steel ball as milling media. Approximately 30-35 mg of Form I freebase was weighed into a milling capsule and 1 vol. of solvent (solvent drop) was added. The milling was carried out for 16 s at 3500 rpm. Overall, no new patterns were identified from dry and solvent-drop milling experiments. […] Loss of crystallinity was most evident in the dry-milled sample, though Form I freebase pattern was still readily distinguished.

[5] = Drying of Patterns overnight at 50° C.; details: XRPD
Method: For fast-cooling crystallization, Form I freebase was obtained from methanol (MeOH), MeOH:water (9:1 vol.), ethanol (EtOH):water (9:1 vol.), ethyl acetate (EtOAc):N,N-dimethylformamide (DMF) (9:1 vol.), and EtOH:tetrahydrofuran (THF) (3:7 vol.). Form II freebase (Example 3) was obtained from THF, and from acetonitrile:dimethylformamide (DMF) (9:1 vol.) as a mixture with Form I freebase. Pattern C (Example 7) was obtained from isopropanol (IPA):water (9:1 vol.) at −20° C.
Pattern B (Example 7) was obtained from dimethylacetamide (DMAc)/methyl isobutyl ketone (MIBK) after standing overnight at −20° C. […] A mixture of Form III freebase (Example 4) (major) and Form I freebase (minor) was obtained from the direct addition of water into dimethylsulfoxide (DMSO). The ratio of the two patterns was unchanged after drying in vacuo at 50° C. for 4 h. Reverse addition (DMSO/water) gave Form III freebase (Example 4) alone, with no evidence of Form I freebase. Reverse antisolvent addition (dimethylacetamide (DMAc)/water or N-methylpyrrolidone (NMP)/water) gave Form IV freebase (Example 5).
Pattern B freebase was obtained from dimethylacetamide (DMAc)/methyl isobutyl ketone (MIBK) after standing overnight at −20° C. See Example 2, Table 2B. […] The XRPD of Pattern B freebase, taken before drying, is provided in FIG. 7C, and the corresponding signal list is provided in Table 7B.
Pattern C freebase was obtained from isopropanol (IPA):water (9:1 vol.) at −20° C.

[6] = Thermal treatment of solid forms; details: held 10 min; for XRPD after thermal treatment to 210° C.: 30 to 210° C. at 10° C./min, cooled to 30° C.
Method: Thermal treatment of the Amorphous freebase was carried out. 10 mg of amorphous Compound 1 freebase was weighed into a 100 μL DSC pan. The pan was heated at a rate of 10° C./min to 200° C., held at 200° C. for 10 min, then cooled at a rate of 20° C./min to 25° C. Data not shown. The resulting solids were brittle and dark-orange. The solids sampled for XRPD, NMR, and HPLC purity analysis indicated decomposition of Compound 1 freebase rather than maintaining the amorphous state or conversion to a crystalline form.
Thermal treatment of Form III freebase to 210° C. was carried out. Approximately 5 mg of Form III freebase was weighed into a DSC pan. The sample was heated from 30° C. to 210° C. at a rate of 10° C./min, held at 210° C. for 10 min, then cooled from 210° C. to 30° C. at a rate of 20° C./min. […] Data not shown. The peaks at 16.2 °2θ and 20.1 °2θ may have been due to trace amounts of Form II freebase (Example 3).
Thermal treatment of Form IV freebase to 210° C. was carried out. Approximately 5 mg of Form IV freebase was weighed into a DSC pan. The sample was heated from 30° C. to 210° C. at a rate of 10° C./min, held at 210° C. for 10 min, then cooled from 210° C. to 30° C. at a rate of 20° C./min.

[7] = Solvent addition to Amorphous freebase

DVS mass change 5-95% RH (wt. %) [1] | water uptake, weight gain between 5-95% relative humidity (RH) [1] | hygroscopicity [1] | XRPD pre- and post-DVS [1] | XRPD (tested material) [2] | Purity % a/a (tested material) [2] | Purity % a/a (input material) [2] | relative stability of Forms I-IV freebases ([3]; RT and 50° C.) | Structure (SMILES) | other results
0.5 wt. % | 0.5% | slightly, hygroscopic | remain unchanged | Form I | 97.94 % a/a | 98.06 % a/a | more stable | CC(C)(O)CNc1nnc(-c2ccc(Cl)cc2O)c2ccncc12 [Form I freebase, 5-chloro-2-(4-((2-hydroxy-2-methylpropyl)amino)pyrido[3,4-d]pyridazin-1-yl)phenol] | XRPD after milling ([4]; None (dry)): Form I; XRPD after dry and solvent-drop milling (overall) ([4]; ball mill): remained largely unchanged; XRPD after milling ([4]; solvent drop 1 vol. Acetone): Form I; XRPD after milling ([4]; solvent drop 1 vol. Isopropanol:water (9:1 vol.)): Form I; XRPD after milling ([4]; solvent drop 1 vol. Methanol (MeOH)): Form I; XRPD after milling ([4]; solvent drop 1 vol. Tetrahydrofuran (THF)): Form I; XRPD after milling ([4]; solvent drop 1 vol. acetonitrile:dimethylformamide (8:2 vol.)): Form I
1.03 wt. % | about 1.03% | slightly, hygroscopic | remained unchanged | Form II | 98.12 % a/a | 98.12 % a/a | more stable | CC(C)(O)CNc1nnc(-c2ccc(Cl)cc2O)c2ccncc12 [Form II freebase, 5-chloro-2-(4-((2-hydroxy-2-methylpropyl)amino)pyrido[3,4-d]pyridazin-1-yl)phenol] | form favored after 7 days ([3]; RT and 50° C., 7 days): favored in most solvent systems; form favored, Form II vs Form I ([3]; overall conclusion of first set): favored over Form I freebase in all solvent systems except acetone:water (7:3 vol.)
 |  |  |  |  |  |  |  | CC(C)(O)CNc1nnc(-c2ccc(Cl)cc2O)c2ccncc12 [Pattern B freebase, 5-chloro-2-(4-((2-hydroxy-2-methylpropyl)amino)pyrido[3,4-d]pyridazin-1-yl)phenol] | form after drying overnight at 50° C. [5]: conversion to Form I freebase; form after drying overnight at 50° C. ([5]; listed as Pattern B): conversion to Form I freebase
1.59 wt. % | about 1.59% | slightly, hygroscopic | remained unchanged | Form IV | 98.53 % a/a | 99.48 % a/a | converted rapidly | CC(C)(O)CNc1nnc(-c2ccc(Cl)cc2O)c2ccncc12 [Form IV freebase, 5-chloro-2-(4-((2-hydroxy-2-methylpropyl)amino)pyrido[3,4-d]pyridazin-1-yl)phenol] | evidence of form by XRPD after 2 days [3]: no evidence; XRPD after thermal treatment to 210° C. [6]: conversion to Form I freebase
0.24 wt. % | about 0.24% | slightly, hygroscopic | remained unchanged | Form III | 99.60 % a/a | 99.54 % a/a | converted rapidly | CC(C)(O)CNc1nnc(-c2ccc(Cl)cc2O)c2ccncc12 [Form III freebase, 5-chloro-2-(4-((2-hydroxy-2-methylpropyl)amino)pyrido[3,4-d]pyridazin-1-yl)phenol] | evidence of form by XRPD after 2 days [3]: no evidence; XRPD after thermal treatment to 210° C. [6]: conversion to Form I freebase
 |  |  |  |  |  |  |  | CC(C)(O)CNc1nnc(-c2ccc(Cl)cc2O)c2ccncc12 [Amorphous freebase, 5-chloro-2-(4-((2-hydroxy-2-methylpropyl)amino)pyrido[3,4-d]pyridazin-1-yl)phenol] | XRPD, NMR, and HPLC purity analysis after thermal treatment ([6]; heated 10° C./min to 200° C., cooled to 25° C.): decomposition; form conversion upon addition of solvent ([7]; 5 vol. acetone): Rapid conversion of the Amorphous freebase to Form I freebase; form conversion upon addition of solvent ([7]; toluene): rapid conversion of the Amorphous freebase to Form II freebase
 |  |  |  |  |  |  |  | CC(C)(O)CNc1nnc(-c2ccc(Cl)cc2O)c2ccncc12 [Pattern C freebase, 5-chloro-2-(4-((2-hydroxy-2-methylpropyl)amino)pyrido[3,4-d]pyridazin-1-yl)phenol] | form after drying overnight at 50° C. [5]: converted to the low-crystalline version of Form I freebase (Pattern A freebase); form after drying overnight at 50° C. ([5]; listed as Pattern C): converted to Pattern A

From patent US12516060B2, “Solid freebase forms of 5-chloro-2-(4-((2-hydroxy-2-methylpropyl)amino)pyrido[3,4-d]pyridazin-1-yl)phenol for inhibiting NLRP3 and uses thereof” (Ventus Therapeutics U.S., Inc., priority 2023, dated 2026)
